Patent US20190167811A1, “LIPID COMPOSITIONS AND THEIR USES FOR INTRATUMORAL POLYNUCLEOTIDE DELIVERY” (ModernaTX, Inc., priority 2016, published 2019)

Assay: Plasma and liver pharmacokinetics of LNP formulated mRNAs
Format: in vivo
Protocol: The plasma and liver pharmacokinetics of a lipid formulation (LNP) containing Compound 18 and an mRNA encoding a protein of interest was studied. The concentrations of Compound 18 in plasma after a single IV infusion are shown FIG. 28. The concentration of Compound 18 decreased quickly within about 12 hours.
The concentrations of Compound 18 in liver tissues after weekly dosing were measured at day 1, day 8, and day 15.

SMILES: CCCCCCCCCOC(=O)CCCCCCCN(CCO)CCCCCCCC(=O)OC(CCCCCCCC)CCCCCCCC [Compound 18, Heptadecan-9-yl 8-((2-hydroxyethyl)(8-(nonyloxy)-8-oxooctyl)amino) octanoate]
- time within which the concentration of Compound 18 in plasma decreased quickly (single IV infusion of LNP containing Compound 18 and mRNA): ≤ 12 h
- concentration of Compound 18 in liver tissues (weekly dosing, measured at day 1, day 8, day 15, at four hours after each weekly dosing): decreased significantly
